US11572590B2, “Methods for evaluating tumor cell spheroids using 3D microfluidic cell culture device” (Dana-Farber Cancer Institute, Inc., priority 2017, dated 2023)

Assays:
[1] = test system: CT26 MDOTS; assay: Live/dead (AO/PI) imaging of CT26 MDOTS in 3D microfluidic culture; assay type: cell-based, murine; conditions: Cmpd1 (1 μM) + αPD-1, 6 days
Method: Fresh tumor specimens (murine and human patients) were received in media (DMEM) on ice and minced in a 10 cm dish (on ice) using sterile forceps and scalpel. Minced tumor was resuspended in DMEM ([…], […] sodium pyruvate, 1:100 penicillin-streptomycin) (Corning CellGro, Manassas, Va.) +10% FBS (Gemini Bio-Products, West Sacramento, Calif.), 100 U/mL collagenase type IV (Life Technologies, Carlsbad, Calif.), and 15 mM HEPES (Life Technologies, Carlsbad, Calif.), except for CT26 tumors that were prepared in RPMI. Samples were pelleted and resuspended in 10-20 mL media. Red blood cells were removed from visibly bloody samples using RBC Lysis Buffer (Boston Bio-Products, Ashland, Mass.). […]
Dual labeling was performed by loading microfluidic device with Nexcelom ViaStain™ AO/PI Staining Solution (Nexcelom, CS2-0106). Following incubation with the dyes (20 minutes at room temperature in the dark), images were captured on a Nikon Eclipse 80i fluorescence microscope equipped with Z-stack (Prior) and CoolSNAP CCD camera (Roper Scientific). […] Live and dead cell quantitation was performed by measuring total cell area of each dye. […]

[2] = molecular target: off-target kinases (Homo sapiens, UniProt P36888); assay: SelectScreen Kinase Profiling, single point inhibition and IC50 for off-target kinases; assay type: biochemical; parameters: other: FLT3 ITD; 1000 μM; conditions: FLT3 ITD; 1000 μM; LanthaScreen Binding
Method: Biochemical single point inhibition and IC50 concentrations for TBK1, IKKε (IKBKE), and off-target kinases were determined at ThermoFisher Scientific using SelectScreen Kinase Profiling Services (Madison, Wis., USA) (Tables S4A and S4B-1-7). To determine cellular potency, the human colorectal cancer carcinoma cell line HCT116 (ATCC, Manassas, Va.) was maintained in T175 flasks in complete RPMI medium; RPMI 1640 supplemented with 10% FBS, 1× Penicillin-Streptomycin solution and 1×MEM (non-essential amino acids). HCT116 cells were grown to 90-95% confluency in T175 flasks containing complete RPMI medium and transfected in bulk using Lipofectamine 2000 (Invitrogen, Carlsbad, Calif.) with 70 μg of ISG54-luciferase reporter plasmid (Elim Biopharmaceuticals Inc., Hayward, Calif.). The reporter plasmid contains a luciferase gene expression cassette under the transcriptional regulation of the promoter of the human interferon stimulated gene 54 (ISG54). Transfection of the cells was allowed to take place for 6 hours, after which the cells were harvested by treatment with 0.25% trypsin EDTA (Corning Inc., Corning, N.Y.). Trypsinized cells were added to 384-well poly-d-lysine treated black clear bottom tissue culture assay plates (Greiner Bio-One GmbH, Kremsmünster, Austria) at a density of 20,000 cells/well in 80 μL of complete RPMI medium and incubated overnight. After 16-18 hours post-transfection, the assay plates were washed with PBS (Corning Inc., Corning, N.Y.), followed by addition of 80 μL/well of serum-free RPMI 1640 medium containing 1× Penicillin-Streptomycin solution, 1×MEM and 350 nL of DMSO or titrations of Compound 1. […] The assay plates were incubated for 5 hours at 37° C., followed by addition of One-Glo luciferase firefly reagent (Promega, Madison, Wis.) at 1:1 volume/well and luminescence was measured in an EnVision Multilabel Plate Reader (PerkinElmer, Santa Clara, Calif.). The EC50 values were calculated from the fit of the dose-response curves to a four-parameter equation. […]

Structure (SMILES): N#Cc1cc(-c2ncnc(Nc3ccc(N4CCN(C5COC5)CC4)cc3)n2)ccc1OC1CCOCC1 [Compound 1, 5-(4-((4-(4-(oxetan-3-yl)piperazin-1-yl)phenyl)amino)-1,3,5-triazin-2-yl)-2-((tetrahydro-2H-pyran-4-yl)oxy)benzonitrile]
- killing of CT26 MDOTS, ex vivo combination treatment [1]: enhanced killing
- % Inhibition 1 [2]: 64%
- % Inhibition 2 [2]: 62%
- % Inhibition Avg [2]: 63%
